Patent publication US20230092679A1, “MCL-1 INHIBITOR ANTIBODY-DRUG CONJUGATES AND METHODS OF USE” (NOVARTIS AG, priority 2019, published 2023)

Experiments:
KMS21 BM cells [1] = test: CTG cell viability assay, KMS21 BM cells; assay type: cell-based; details: FIG. 18
Procedure: Cell viability may also be measured, e.g., by quantifying ATP, an indicator of metabolically active cells. In some embodiments, in vitro potency and/or cell viability of prepared ADCs or Mcl-1 inhibitor compounds may be assessed using a CellTiter-Glo® (CTG) cell viability assay, as described in the examples provided herein. In this assay, in some embodiments, the single reagent (CellTiter-Glo® Reagent) is added directly to cells cultured in serum-supplemented medium. The addition of reagent results in cell lysis and generation of a luminescent signal proportional to the amount of ATP present. The amount of ATP is directly proportional to the number of cells present in culture

KMS21 BM cells [2] = test: Cell viability CTG assay, anti-CD46-Mcl-1 ADC (Example 14); assay type: cell-based; details: 72h
Procedure: KMS21 BM cells were cultivated in RPM11640 supplemented with 10% heat inactivated fetal bovine serum, penicillin (100 IU/ml), streptomycin (100 μg/ml) and L-glutamine (2 mM), at 37° C. in a humidified atmosphere containing 5% CO2. KMS21 BM cells were seeded in 96 microwell plates and exposed to the ADCs for 72h (3.16 fold serially diluted; 9 concentrations each, triplicates). […] All the conditions were tested in triplicates. Luminescence was quantified on a multipurpose plate reader. IC50s (Table 33) were calculated using standard four-parametric curve fitting. […] Each experiment was performed at least twice, with results being reproducible.

## COc1ccccc1-c1nccc(COc2ccccc2C[C@@H](Oc2ncnc3sc(-c4ccc(F)cc4)c(-c4ccc(OCCN5CCN(C)CC5)c(Cl)c4C)c23)C(=O)O)n1 [C1, (2R)-2-[(5Sa)-5-[3-chloro-2-methyl-4-[2-(4-methylpiperazin-1-yl)ethoxy]phenyl]-6-(4-fluorophenyl)thieno[2,3-d]pyrimidin-4-yl]oxy-3-[2-[[2-(2-methoxyphenyl)pyrimidin-4-yl]methoxy]phenyl]propanoic acid]
KMS21 BM cells [1]
  viability of KMS21 BM cells: dose dependent decrease in the viability
KMS21 BM cells [2]; FIG. 18
  viability of KMS21 BM cells in CTG assay, in words: dose dependent decrease in the viability
KMS21 BM cells [2]; KMS-21BM, KMS21BM cell line, CTG
  IC50: 2.31 nM
